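All cell lines were grown in 96-well plates and treated with compound for 48 hours. Abbreviation: GI50, concentration required for 50% inhibition of growth. TGI marks complete inhibition of growth.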
Assays:
Assay in all cases: NCI-60 cell line screen, 48 h; in the data active = GI50 below about 0.43 µM; inactive = the rest
[1] = tested on: HCT-116 colon
[2] = tested on: UACC-257 melanoma
[3] = tested on: NCI-H522 lung
[4] = tested on: NCI-H226 lung
[5] = tested on: HCT-15 colon
[6] = tested on: SK-MEL-5 melanoma
[7] = tested on: MCF7 breast
[8] = tested on: HOP-62 NSCLC
[9] = tested on: HS 578T breast
[10] = tested on: 786-0 renal
[11] = tested on: NCI/ADR-RES ovarian
[12] = tested on: K-562 leukemia
[13] = tested on: ACHN renal
[14] = tested on: SF-268 CNS
[15] = tested on: U251 CNS
[16] = tested on: MDA-MB-435
[17] = tested on: SK-OV-3 ovarian
[18] = tested on: SNB-19 CNS
[19] = tested on: CAKI-1 renal
[20] = tested on: MDA-MB-231 breast
[21] = tested on: A549 NSCLC
[22] = tested on: SW-620 colon
[23] = tested on: RXF 393 renal
[24] = tested on: PC-3 prostate
[25] = tested on: SF-539 CNS
[26] = tested on: M14 melanoma
[27] = tested on: T-47D breast
[28] = tested on: UACC-62 melanoma
[29] = tested on: DU-145 prostate
[30] = tested on: A498 renal
[31] = tested on: BT-549 breast
[32] = tested on: NCI-H460 lung
[33] = tested on: HCC-2998 colon
[34] = tested on: COLO 205 colon
[35] = tested on: LOX IMVI melanoma
[36] = tested on: MALME-3M melanoma
[37] = tested on: SK-MEL-28 melanoma
[38] = tested on: OVCAR-8 ovarian
[39] = tested on: HOP-92 NSCLC
[40] = tested on: EKVX NSCLC
[41] = tested on: SR leukemia
[42] = tested on: OVCAR-5 ovarian
[43] = tested on: NCI-H23 lung
[44] = tested on: SNB-75 CNS
[45] = tested on: SK-MEL-2 melanoma
[46] = tested on: KM12 colon
[47] = tested on: SF-295 CNS
[48] = tested on: UO-31 renal
[49] = tested on: TK-10 renal
[50] = tested on: IGROV1 ovarian
[51] = tested on: CCRF-CEM leukemia
[52] = tested on: SN12C renal
[53] = tested on: OVCAR-4 ovarian
[54] = tested on: OVCAR-3 ovarian
[55] = tested on: HT29 colon
[56] = tested on: MOLT-4 leukemia
[57] = tested on: RPMI-8226 leukemia
[58] = tested on: HL-60(TB) leukemia

CCN(CC)CCNC(=O)c1cn2ncnc(Oc3ccc(NC(=O)Nc4ccc(Cl)c(C(F)(F)F)c4)c(F)c3)c2c1C
3.35 µM: TGI [23]
4.13 µM: TGI [3]
3.48 µM: TGI [31]
2.89 µM: TGI [5]
2.55 µM: TGI [36]
3.04 µM: TGI [13]
3.69 µM: TGI [10]
3.5 µM: TGI [18] | TGI [22] | TGI [50]
3.3 µM: TGI [24] | TGI [45]
3.12 µM: TGI [29]
3.96 µM: TGI [38]
3.08 µM: TGI [46]
3.15 µM: TGI [6] | TGI [7] | TGI [28]
3.44 µM: TGI [21]
4 µM: TGI [27]
3.82 µM: TGI [11]
4.15 µM: TGI [4]
3.26 µM: TGI [17]
1.09 µM: TGI [41]
3.28 µM: TGI [20] | TGI [30]
4.29 µM: TGI [9] | TGI [51]
3.34 µM: TGI [40]
2.45 µM: TGI [55]
3.74 µM: TGI [14]
3.17 µM: TGI [43]
2.79 µM: TGI [37]
2.28 µM: TGI [12]
2.43 µM: TGI [25]
inactive: GI50 [1] 1.48 µM | GI50 [2] 1.61 µM | GI50 [3] 2.03 µM | GI50 [4] 2.05 µM | GI50 [5] 1.46 µM | GI50 [6] 1.75 µM | GI50 [7] 1.4 µM | GI50 [8] 1.88 µM | GI50 [9] 1.52 µM | GI50 [10] 1.95 µM | GI50 [11] 1.95 µM | GI50 [12] 0.442 µM | GI50 [13] 1.68 µM | GI50 [14] 1.92 µM | GI50 [15] 1.59 µM | GI50 [16] 1.57 µM | GI50 [17] 1.66 µM | GI50 [18] 1.95 µM | GI50 [19] 1.69 µM | GI50 [20] 1.63 µM | GI50 [21] 1.77 µM | GI50 [22] 1.91 µM | GI50 [23] 1.8 µM | GI50 [24] 1.53 µM | GI50 [25] 1.12 µM | GI50 [26] 1.58 µM | GI50 [27] 1.83 µM | GI50 [28] 1.68 µM | GI50 [29] 1.72 µM | GI50 [30] 1.84 µM | GI50 [31] 1.86 µM | GI50 [32] 1.99 µM | GI50 [33] 2.17 µM | GI50 [34] 1.44 µM | GI50 [35] 1.3 µM | GI50 [36] 1.15 µM | GI50 [37] 1.47 µM | GI50 [38] 1.95 µM | GI50 [39] 1.6 µM | GI50 [40] 1.92 µM | GI50 [42] 1.86 µM | GI50 [43] 1.62 µM | GI50 [45] 1.61 µM | GI50 [46] 1.57 µM | GI50 [47] 1.66 µM | GI50 [48] 2.1 µM | GI50 [49] 2.38 µM | GI50 [50] 1.85 µM | GI50 [51] 1.41 µM | GI50 [52] 1.69 µM | GI50 [53] 1.74 µM | GI50 [54] 1.77 µM | GI50 [55] 0.834 µM
3.36 µM: TGI [53]
2.62 µM: TGI [35]
1.97 µM: TGI [44]
3.02 µM: TGI [16]
3.16 µM: TGI [34]
4.04 µM: TGI [49]
3.33 µM: TGI [42]
3.77 µM: TGI [33]
3.56 µM: TGI [39]
3.87 µM: TGI [32]
active: GI50 [41] 0.343 µM | GI50 [44] 0.412 µM
3.63 µM: TGI [48]
3.18 µM: TGI [1] | TGI [2]
3.21 µM: TGI [54]
3.72 µM: TGI [8]
3.4 µM: TGI [52]
3.07 µM: TGI [15] | TGI [47]
3.13 µM: TGI [19]
3.24 µM: TGI [26]

CC1CCCc2c1nn(C(=O)/C=C(\N)c1ccccc1)c2N (centres undefined)
26.5 µM: TGI [16]
84.9 µM: TGI [56]
85.5 µM: TGI [33]
41.5 µM: TGI [28]
15.4 µM: TGI [19]
44.1 µM: TGI [40]
26.3 µM: TGI [1]
32.6 µM: TGI [54]
79.1 µM: TGI [34]
92.9 µM: TGI [43]
39.4 µM: TGI [11]
45.7 µM: TGI [6]
> 100 µM: TGI [2] | TGI [4] | TGI [5] | TGI [7] | TGI [8] | TGI [9] | TGI [10] | TGI [12] | TGI [13] | TGI [14] | TGI [15] | TGI [17] | TGI [18] | TGI [20] | TGI [21] | TGI [57] | TGI [22] | TGI [23] | TGI [24] | TGI [25] | TGI [26] | TGI [29] | TGI [32] | TGI [35] | TGI [36] | TGI [37] | TGI [38] | TGI [42] | TGI [44] | TGI [45] | TGI [46] | TGI [47] | TGI [48] | TGI [49] | TGI [50] | TGI [51] | TGI [52] | TGI [53] | TGI [55]
61.7 µM: TGI [3]
90.5 µM: TGI [30]
95.1 µM: TGI [27]
44.3 µM: TGI [58]
95.7 µM: TGI [39]
93.7 µM: TGI [31]
inactive: GI50 [1] 5.55 µM | GI50 [2] 25.6 µM | GI50 [3] 13.6 µM | GI50 [4] 16.5 µM | GI50 [5] 5.85 µM | GI50 [6] 4.35 µM | GI50 [56] 5.16 µM | GI50 [7] 7.26 µM | GI50 [8] 8.49 µM | GI50 [9] 22.4 µM | GI50 [10] 16.2 µM | GI50 [11] 6.03 µM | GI50 [12] 4.99 µM | GI50 [13] 9.94 µM | GI50 [14] 9.61 µM | GI50 [15] 5.06 µM | GI50 [16] 10.7 µM | GI50 [17] 14.5 µM | GI50 [18] 25.2 µM | GI50 [19] 4.11 µM | GI50 [20] 28.3 µM | GI50 [21] 9.06 µM | GI50 [57] 9.13 µM | GI50 [22] 6.71 µM | GI50 [23] 31.3 µM | GI50 [24] 6.54 µM | GI50 [25] 17.7 µM | GI50 [26] 12.3 µM | GI50 [27] 3.71 µM | GI50 [28] 9.45 µM | GI50 [29] 14.5 µM | GI50 [30] 9.64 µM | GI50 [31] 24.3 µM | GI50 [32] 4.23 µM | GI50 [33] 14.6 µM | GI50 [34] 10.1 µM | GI50 [35] 6.29 µM | GI50 [36] 9.4 µM | GI50 [37] 17.9 µM | GI50 [38] 8.5 µM | GI50 [39] 10.3 µM | GI50 [40] 16.5 µM | GI50 [42] 31 µM | GI50 [43] 5.5 µM | GI50 [44] 25.6 µM | GI50 [45] 34.8 µM | GI50 [46] 5.97 µM | GI50 [47] 30.6 µM | GI50 [48] 3.92 µM | GI50 [49] 28.9 µM | GI50 [50] 12.5 µM | GI50 [51] 6.8 µM | GI50 [52] 8.13 µM | GI50 [53] 12.8 µM | GI50 [58] 5.96 µM | GI50 [54] 5.61 µM | GI50 [55] 16.8 µM
